Test results: US5250527A, “Pyridyl containing benzimidazoles, compositions and use” (SmithKline & French Laboratories Limited, priority 1988, dated 1993)
pIC50: −log10 of the molar value.

How the values were obtained:
[1] = tested on: rabbit intact gastric glands; test: Aminopyrine (AP) accumulation in intact gastric glands; format: cell-based, New Zealand white rabbits; details: Oryctolagus cuniculus, 0.5 h, inhibition of aminopyrine accumulation, dibutyryl cAMP stimulated, pH 7.4, 30 min
Description: The effect of a single concentration (100 μm) of a compound of structure (I) on dibutyryl cAMP stimulated AP […] in rabbit intact gastric glands was determined. Preferred compounds of structure (I) were tested over a range of concentrations to determine the IC50 value.
Intact gastric glands were prepared from New Zealand white rabbits by the method of Berghindh et al. (Acta. Physio. Scand. 96, 150, 1976). Gastric mucosal scrapings were digested at 37° C. for 45-60 min. with Collagenase (100 U. Type 1. Sigma), and glands harvested by coarse filtration and sedimentation.
Test compound was incubated with glands and 300 μM dibutyryl CAMP for 30 minutes at […]. Incubating medium contained 132.5 mM NaCl, 5.4 Mm KCl, 1.0 mM NaH2 PO4. 5.0 mM Na2 HPO4, 1.2 mM MgSO4, 1.0 mM CaCl2, 11.1 mM glucose, 2.0 mg/ml rabbit albumin, 10 μg/ml phenol red, approximately 0.3 μM[^14 C] aminopyrine (110 mCi/mmole), pH 7.4.
After incubation, glands were centrifuged and the supernatant removed. The glands were dried, weighed and dissolved in NaOH. The distribution of radioactivity between the supernatant and glands is then used to calculate the AP ratio after the method of Berglindh et al. (Acta. Physiol. Scand. 97, 401, 1976).
The IC50 value is the amount of compound required to inhibit the […] accumulation of aminopyrine by 50%.

H^+ -K^+ -ATPase = molecular target: T1, H^+ -K^+ -ATPase (Sus scrofa, UniProt P19156); test: K+ stimulated ATPase activity; format: biochemical; details: at pH 6.1 and 7.4; lyophilised gastric vesicles of pig fundic mucosa
T1 construct: alpha-beta complex
Description: The effects of a single high concentration (1 mM) of a compound of structure (I) on H^+ -K^+ ATPase were determined at pH 6.1 and pH 7.4.
Compounds of structure (I) were pre-incubated with H^+ -K^+ -ATPase preparation 30 μg protein/ml from (i) in 10 mM Pipes/Tris buffer pH 6.1 and pH 7.4.
After 30 min at 37° the preincubation was diluted 5-fold with assay buffer to start the ATPase reaction. The conditions in the assay are 100 mM Pipes/Tris, 2 mM MgCl2, 10 mM KCl, 5 μgml nigericin, 2 mM Na2 ATP, pH 7.0.
The effect of the same concentration of compound of structure (I) (preincubated with H^+ -K^+ -ATPase preparation at pH 7.4 as described above) on the recovery of 100 nmole of inorganic phosphate was also determined.
Compounds of structure (I) were initially dissolved in dimethyl sulphoxide, polyethylene glycol (Type 400) or Pipes/Tris buffer.
All data refer to the concentration of compound present in the preincubation before dilution with assay buffer.

[2] = tested on: Histamine-Stimulated Gastric Acid Secretion; test: Dog: Conscious Heidenhain Pouch (Histamine-Stimulated Gastric Acid Secretion); format: in vivo; details: Canis lupus familiaris, intravenous
Source text: B. Dog: Conscious Heidenhain Pouch (Histamine-Stimulated Gastric Acid Secretion)
Using dogs surgically prepared with Heidenhain pouches 1 to 3 years previously, inhibitory ED50 values against histamine stimulated gastric acid secretion after intravenous administration were obtained.

[3] = tested on: Histamine Stimulated Gastric Acid Secretion; test: Rat: Lumen Perfumed Stomach (Histamine Stimulated Gastric Acid Secretion); format: in vivo; details: i.v.
Source text: C. Rat: Lumen Perfumed Stomach (Histamine Stimulated Gastric Acid Secretion)
Using a modification of the procedure described by Ghosh and Schild (Br. J. Pharmacology, 13, 54, 1958), ED50 values after either intraduodenal (i.d) or intravenous (i.v) administration were obtained as follows: […]

T1 sequence (P19156 whole entry): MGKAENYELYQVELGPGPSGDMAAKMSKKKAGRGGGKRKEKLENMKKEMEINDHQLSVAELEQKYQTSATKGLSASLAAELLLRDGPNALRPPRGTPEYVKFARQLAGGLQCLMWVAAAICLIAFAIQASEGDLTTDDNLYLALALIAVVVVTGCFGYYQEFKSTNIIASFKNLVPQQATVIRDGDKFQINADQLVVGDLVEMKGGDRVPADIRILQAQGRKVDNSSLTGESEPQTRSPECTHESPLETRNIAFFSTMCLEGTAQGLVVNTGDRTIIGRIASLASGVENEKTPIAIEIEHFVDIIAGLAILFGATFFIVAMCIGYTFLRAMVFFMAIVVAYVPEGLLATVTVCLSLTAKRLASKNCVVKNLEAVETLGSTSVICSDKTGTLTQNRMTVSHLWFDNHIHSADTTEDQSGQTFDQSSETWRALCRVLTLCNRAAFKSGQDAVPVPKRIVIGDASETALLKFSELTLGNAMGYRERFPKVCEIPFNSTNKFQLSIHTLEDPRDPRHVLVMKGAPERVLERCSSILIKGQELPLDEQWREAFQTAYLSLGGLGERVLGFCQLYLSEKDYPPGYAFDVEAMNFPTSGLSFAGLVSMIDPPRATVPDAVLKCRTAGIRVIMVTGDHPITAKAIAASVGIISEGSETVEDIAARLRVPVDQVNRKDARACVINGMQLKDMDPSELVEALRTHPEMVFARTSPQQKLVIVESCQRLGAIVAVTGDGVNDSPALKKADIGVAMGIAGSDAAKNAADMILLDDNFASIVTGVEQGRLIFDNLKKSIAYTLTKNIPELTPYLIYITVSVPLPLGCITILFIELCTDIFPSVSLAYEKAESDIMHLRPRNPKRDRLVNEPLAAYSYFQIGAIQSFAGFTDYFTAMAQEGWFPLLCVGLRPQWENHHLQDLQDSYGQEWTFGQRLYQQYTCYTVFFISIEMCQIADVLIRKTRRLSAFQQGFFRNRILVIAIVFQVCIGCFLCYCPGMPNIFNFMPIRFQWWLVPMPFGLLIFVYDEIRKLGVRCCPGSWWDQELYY
T1 sequence (P18434 whole entry partner): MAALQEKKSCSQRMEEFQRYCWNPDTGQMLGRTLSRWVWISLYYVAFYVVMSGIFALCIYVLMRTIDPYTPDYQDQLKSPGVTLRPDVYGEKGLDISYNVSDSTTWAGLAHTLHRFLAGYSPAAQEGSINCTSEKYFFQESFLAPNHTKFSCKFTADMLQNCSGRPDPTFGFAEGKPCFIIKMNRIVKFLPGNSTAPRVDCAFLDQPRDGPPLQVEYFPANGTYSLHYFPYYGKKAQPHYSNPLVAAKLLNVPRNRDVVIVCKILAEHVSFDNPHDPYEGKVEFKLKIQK

Compound | pIC50 [1] | inhibition of potassium stimulated ATPase activity (H^+ -K^+ -ATPase) | ED50 [2] | % inhibition at 1 μM/kg [3]
Cc1cnc(C[S+]([O-])c2nc3cc(OC(F)(F)C(F)F)ccc3[nH]2)c(Cl)c1N1CCCCC1 (stereo not drawn) [Example 23, 2-(4-piperidino-3-chloro-5-methyl-2-pyridylmethylsulphinyl)-5-(1,1,2,2-tetrafluoroethoxy)-(1H)-benzimidazole] | 5.72 | found to inhibit potassium stimulated ATPase activity | – | –
COc1ccc2[nH]c([S+]([O-])Cc3nccc(N4CCCCC4)c3Br)nc2c1 (stereo not drawn) [Example 20, 2-(4-piperidino-3-bromo-2-pyridylmethylsulphinyl)-5-methoxy-(1H)-benzimidazole] | 5.89 | found to inhibit potassium stimulated ATPase activity | – | –
COc1ccc2[nH]c([S+]([O-])Cc3ncc(C)c(N4CCOCC4)c3Cl)nc2c1 (stereo not drawn) [Example 6, 2 -(4 -morpholino-3 -chloro-5 -methyl-2 -pyridylmethylsulphinyl)-5 -methoxy-(1H)-benzimidazole] | 4.79 | found to inhibit potassium stimulated ATPase activity | 2.2 µmol/kg | –
COc1ccc2[nH]c([S+]([O-])Cc3nccc(N4CCOCC4)c3F)nc2c1 (stereo not drawn) [Example 28, 2-(4-morpholino-3-fluoro-2-pyridylmethylsulphinyl)-5-methoxy-(1H)-benzimidazole] | – | – | 2.75 µmol/kg | –
COc1ccc2[nH]c([S+]([O-])Cc3ncc(Br)c(N4CCCCC4)c3C)nc2c1 (stereo not drawn) [Example 22, 2-(4-piperidino-5-bromo-3-methyl-2-pyridylmethylsulphinyl) -5-methoxy-(1H)-benzimidazole] | 5.04 | found to inhibit potassium stimulated ATPase activity | – | –
COc1ccc2[nH]c([S+]([O-])Cc3cc(N(C)C)c(Br)cn3)nc2c1 (stereo not drawn) [Example 25, 2-(4-dimethylamino-5-bromo-2-pyridylmethylsulphinyl)-5-methoxy-(1H)-benzimidazole] | – | found to inhibit potassium stimulated ATPase activity | 0.91 µmol/kg | –
COc1ccc2[nH]c([S+]([O-])Cc3nccc(N4CCOCC4)c3Cl)nc2c1 (stereo not drawn) [Example 4, 2 -(4 -morpholino-3 -chloro-2 -pyridylmethylsulphinyl)-5 -methoxy-(1H)-benzimidazole] | 4.96 | found to inhibit potassium stimulated ATPase activity | 1 µmol/kg | –
COc1ccc2[nH]c([S+]([O-])Cc3cc(N)c(Br)cn3)nc2c1 (stereo not drawn) [Example 2, 2 -(4 -amino-5 -bromo-2 -pyridylmethylsulphinyl)-5 -methoxy-(1H)-benzimidazole] | 5.18 | found to inhibit potassium stimulated ATPase activity | 2.94 µmol/kg | –
COc1ccc2[nH]c([S+]([O-])Cc3ncc(F)c(N4CCOCC4)c3C)nc2c1 (stereo not drawn) [Example 36, 2-(4-morpholino-5-fluoro-3-methyl-2-pyridylmethylsulphinyl)-5-methoxy-(1H)-benzimidazole] | – | – | 2.05 µmol/kg | –
COc1cc2nc([S+]([O-])Cc3nccc(N(C)C)c3F)[nH]c2cc1OC (stereo not drawn) [Example 42, 2-(4-dimethylamino-3-fluoro-2-pyridylmethylsulphinyl)-5,6-dimethoxy-(1H)-benzimidazole] | – | – | – | 46%
2-(4-piperidino-3-chloro-5-methyl-2-pyridylmethylsulphinyl)-4, 5-difluoromethylenedioxy-(1H)-benzimidazole [Example 24] | – | found to inhibit potassium stimulated ATPase activity | – | –
COc1ccc2[nH]c([S+]([O-])Cc3nccc(N4CCCC4)c3Cl)nc2c1 (stereo not drawn) [Example 12, 2 -(4 -pyrrolidino-3 -chloro-2 -pyridylmethylsulphinyl)-5 -methoxy-(1H)-benzimidazole] | 5.00 to 6.00 | found to inhibit potassium stimulated ATPase activity | – | –
COc1cc2nc([S+]([O-])Cc3nccc(N4CCOCC4)c3F)[nH]c2cc1OC (stereo not drawn) [Example 38, 2-(4-morpholino-3-fluoro-2-pyridylmethylsulphinyl)-5,6-dimethoxy-(1H)-benzimidazole] | – | – | – | 33%
COc1ccc2[nH]c([S+]([O-])Cc3cc(N(C)C)c(F)cn3)nc2c1 (stereo not drawn) [Example 34, 2-(4-dimethylamino-5-fluoro-2-pyridylmethylsulphinyl)-5-methoxy-(1H)-benzimidazole] | – | – | – | 37%
COc1ccc2[nH]c([S+]([O-])Cc3cc(N4CCOCC4)c(F)cn3)nc2c1 (stereo not drawn) [Example 30, 2-(4-morpholino-5-fluoro-2-pyridylmethylsulphinyl)-5-methoxy-(1H)-benzimidazole] | – | – | 5.07 µmol/kg | 51%
COc1ccc2[nH]c([S+]([O-])Cc3ncc(C)c(N4CCCC4)c3Cl)nc2c1 (stereo not drawn) [Example 14, 2 -(4 -pyrrolidino-3 -chloro-5 -methyl-2 -pyridylmethylsulphinyl)-5 -methoxy-(1H)-benzimidazole] | 5.59 | found to inhibit potassium stimulated ATPase activity | – | –
COc1ccc2[nH]c([S+]([O-])Cc3ncc(C)c(N4CCCCC4)c3Cl)nc2c1 (stereo not drawn) [Example 8, 2 -(4 -piperidino-3 -chloro-5 -methyl-2 -pyridylmethylsulphinyl)-5 -methoxy-(1H)-benzimidazole] | 5.38 | found to inhibit potassium stimulated ATPase activity | – | –
COc1ccc2[nH]c([S+]([O-])Cc3cc(N4CCCC4)c(Br)cn3)nc2c1 (stereo not drawn) [Example 26, 2-(4-pyrrolidino-5-bromo-2-pyridylmethylsulphinyl)-5-methoxy-(1H)-benzimidazole] | – | found to inhibit potassium stimulated ATPase activity | – | –
COc1ccc2[nH]c([S+]([O-])Cc3nccc(N(C)C)c3F)nc2c1 (stereo not drawn) [Example 32, 2-(4-dimethylamino-3-fluoro-2-pyridylmethylsulphinyl)-5-methoxy-(1H)-benzimidazole] | – | – | – | 26%
COc1ccc2[nH]c([S+]([O-])Cc3nccc(N4CCCCC4)c3Cl)nc2c1 (stereo not drawn) [Example 10, 2 -(4 -piperidino-3 -chloro-2 -pyridylmethylsulphinyl)-5 -methoxy-(1H)-benzimidazole] | 5.70 | found to inhibit potassium stimulated ATPase activity | 1.2 µmol/kg | –
COc1cc2[nH]c([S+]([O-])Cc3nccc(N4CCOCC4)c3F)nc2cc1C (stereo not drawn) [Example 40, 2-(4-morpholino-3-fluoro-2-pyridylmethylsulphinyl)-5-methyl-6-methoxy-(1H)-benzimidazole] | – | – | 2.14 µmol/kg | –
COc1ccc2[nH]c([S+]([O-])Cc3ncc(C)c(N(C)C)c3Cl)nc2c1 (stereo not drawn) [Example 16, 2 -(4 -dimethylamino-3 -chloro-5 -methyl-2 -pyridylmethylsulphinyl)-5 -methoxy-(1H)-benzimidazole] | 5.43 | found to inhibit potassium stimulated ATPase activity | 0.29 µmol/kg | –
COc1ccc2[nH]c([S+]([O-])Cc3cc(N4CCCCC4)c(Br)cn3)nc2c1 (stereo not drawn) [Example 18, 2-(4-piperidino-5-bromo-2-pyridylmethylsulphinyl)-5-methoxy-(1H)-benzimidazole] | 5.80 | found to inhibit potassium stimulated ATPase activity | – | –
